Data taken from US7498349B2, “Biaryl compounds having anti-infective activity” (Genesoft Pharmaceuticals, Inc., priority 2002, dated 2009).
Converted amounts (≈) assume the structure as drawn.

Columns and labels:
B. cereus ATCC 11778 = experiment: MIC, NCCLS broth microdilution assay; type: cell-based, Bacillus cereus; settings: B. cereus ATCC 11778
C. albicans ATCC 38247 = experiment: MIC, antifungal assay; type: cell-based, Candida albicans; settings: C. albicans ATCC 38247
E. faecalis ATCC 29212 = experiment: MIC, NCCLS broth microdilution assay; type: cell-based, Enterococcus faecalis; settings: E. faecalis ATCC 29212
S. aureus ATCC 13709 = experiment: MIC, NCCLS broth microdilution assay; type: cell-based, Staphylococcus aureus; settings: S. aureus ATCC 13709, methicillin sensitive strain (MSSA)
S. aureus ATCC 27660 = experiment: MIC, NCCLS broth microdilution assay; type: cell-based, Staphylococcus aureus; settings: S. aureus ATCC 27660, methicillin resistant strain (MRSA)
S. aureus ATCC 33591 = experiment: MIC, NCCLS broth microdilution assay; type: cell-based, Staphylococcus aureus; settings: S. aureus ATCC 33591
[1] = tested on: S. epidermidis ATCC 12228; experiment: MIC, NCCLS broth microdilution assay; type: cell-based, Staphylococcus epidermidis
S. pneumoniae ATCC 49619 = experiment: MIC, NCCLS broth microdilution assay; type: cell-based, Streptococcus pneumoniae; settings: S. pneumoniae ATCC 49619
E. coli ATCC 25922 = experiment: MIC, NCCLS broth microdilution assay; type: cell-based, Escherichia coli; settings: E. coli ATCC 25922
[2] = tested on: E. faecium (ATCC 51559, VRE); settings: E. faecium ATCC 51559, vancomycin resistant strain (VRE)
Text: (§1) In vitro biological activity data were collected for a variety of microorganisms, including Bacillus cereus (ATCC 11778), Staphylococcus aureus (ATCC 33591; ATCC 27660, a methicillin resistant strain (MRSA); ATCC 13709, a methicillin sensitive strain (MSSA)), Escherichia coli (ATCC 25922), Enterococcus faecalis (ATCC 29212), Streptococcus pneumoniae (ATCC 49619; ATCC 51422, a penicillin resistant strain (PRSP)), Enterococcus faecium (ATCC 51559, a vancomycin resistant strain (VRE)), and Staphylococcus epidermidis (ATCC 12228). Additionally, antifungal activity data were collected for Candida albicans (ATCC 38247).
(§2) Compounds according to this invention were screened for their in vitro activities against selected species of bacteria and fungi. The minimal inhibition concentration (MIC) of these compounds was determined using the National Committee for Clinical Laboratory Standards (NCCLS) broth microdilution assay in microtiter plates, as set forth in: (1) the guidelines of the National Committee for Clinical Laboratory Standards (NCCLS) Document M7-A4 (NCCLS, 1997); (2) the guidelines of the National Committee for Clinical Laboratory Standards (NCCLS) Document M11-A4 (NCCLS, 1997); and (3) the guidelines and reference method of the National Committee for Clinical Laboratory Standards (NCCLS) Document M27 -T (NCCLS, 1995). For antifungal assays, the method recommended in Murray, PR., 1995 Manual of Clinical Microbiology (ASM Press, Washington, D.C.), was employed.
(§3) (MIC values are keyed in the same manner as Table B.)

[3] = tested on: S. pneumoniae (ATCC 51422, PRSP); settings: S. pneumoniae ATCC 51422, penicillin resistant strain (PRSP)
Text: as §1, §2, §3

| MIC (B. cereus ATCC 11778; Bacillus cereus, ATCC11778, read-out: Minimum Inhibitory Concentration (MIC)) [µg/mL] | MIC (C. albicans ATCC 38247; Candida albicans, ATCC38247, read-out: Minimum Inhibitory Concentration (MIC)) [µg/mL] | MIC (E. faecalis ATCC 29212; Enterococcus faecalis, ATCC29212, read-out: Minimum Inhibitory Concentration (MIC)) [µg/mL] | MIC (S. aureus ATCC 13709; Staphylococcus aureus, ATCC 13709 / MSSA, read-out: Minimum Inhibitory Concentration (MIC)) [µg/mL] | MIC (S. aureus ATCC 27660; Staphylococcus aureus, ATCC 27660 / MRSA, read-out: Minimum Inhibitory Concentration (MIC)) [µg/mL] | MIC (S. aureus ATCC 33591; Staphylococcus aureus, ATCC33591, read-out: Minimum Inhibitory Concentration (MIC)) [µg/mL] | MIC ([1]; Staphylococcus epidermidis, ATCC12228, read-out: Minimum Inhibitory Concentration (MIC)) [µg/mL] | MIC (E. coli ATCC 25922; Escherichia coli, ATCC25922, read-out: Minimum Inhibitory Concentration (MIC)) [µg/mL] | SMILES | Minimum Inhibitory Concentration (MIC) (B. cereus ATCC 11778) | Minimum Inhibitory Concentration (MIC) (C. albicans ATCC 38247) | Minimum Inhibitory Concentration (MIC) (E. faecalis ATCC 29212) | Minimum Inhibitory Concentration (MIC) (S. aureus ATCC 13709) | Minimum Inhibitory Concentration (MIC) (S. aureus ATCC 27660) | Minimum Inhibitory Concentration (MIC) (S. aureus ATCC 33591) | Minimum Inhibitory Concentration (MIC) [1] | Minimum Inhibitory Concentration (MIC) (S. pneumoniae ATCC 49619) | Minimum Inhibitory Concentration (MIC) (E. coli ATCC 25922) | Minimum Inhibitory Concentration (MIC) [2] | Minimum Inhibitory Concentration (MIC) [3] |
| --- | --- | --- | --- | --- | --- | --- | --- | --- | --- | --- | --- | --- | --- | --- | --- | --- | --- | --- | --- |
|  |  |  |  |  |  |  |  | NCCCNc1snc(C(=O)Nc2ccc(-c3cc4ccccc4o3)cc2)c1Cl [Compound A-2] | +++ (MIC ≦ 4) | ++ (4 < MIC < 12) | +++ (MIC ≦ 4) | +++ (MIC ≦ 4) | +++ (MIC ≦ 4) | +++ (MIC ≦ 4) | +++ (MIC ≦ 4) | + (12 ≦ MIC ≦ 32) | >32 µg/mL | +++ (MIC ≦ 4) | + (12 ≦ MIC ≦ 32) |
|  |  |  |  |  |  |  |  | NCCNc1snc(C(=O)Nc2ccc(-c3cc4ccccc4o3)cc2)c1Cl [Compound A-3] | + (12 ≦ MIC ≦ 32) | +++ (MIC ≦ 4) | +++ (MIC ≦ 4) | +++ (MIC ≦ 4) | +++ (MIC ≦ 4) | +++ (MIC ≦ 4) | +++ (MIC ≦ 4) | + (12 ≦ MIC ≦ 32) | >32 µg/mL | +++ (MIC ≦ 4) | + (12 ≦ MIC ≦ 32) |
|  |  |  |  |  |  |  |  | CN(C)CCCNc1snc(C(=O)Nc2ccc(-c3cc4ccccc4o3)cc2)c1Cl [Compound A-7] | +++ (MIC ≦ 4) | ++ (4 < MIC < 12) | +++ (MIC ≦ 4) | +++ (MIC ≦ 4) | +++ (MIC ≦ 4) | +++ (MIC ≦ 4) | +++ (MIC ≦ 4) | + (12 ≦ MIC ≦ 32) | >32 µg/mL | +++ (MIC ≦ 4) | + (12 ≦ MIC ≦ 32) |
|  |  |  |  |  |  |  |  | CN(CCCN)CCCNc1snc(C(=O)Nc2ccc(-c3cc4ccccc4o3)cc2)c1Cl [Compound A-8] | +++ (MIC ≦ 4) | ++ (4 < MIC < 12) | +++ (MIC ≦ 4) | +++ (MIC ≦ 4) | +++ (MIC ≦ 4) | +++ (MIC ≦ 4) | +++ (MIC ≦ 4) | + (12 ≦ MIC ≦ 32) | + (12 ≦ MIC ≦ 32) |  |  |
|  |  |  |  |  |  |  |  | CN(C)CCCNc1ncccc1C(=O)Nc1ccc(-c2cc3ccccc3o2)cc1 [Compound A-11] | +++ (MIC ≦ 4) | +++ (MIC ≦ 4) | +++ (MIC ≦ 4) | +++ (MIC ≦ 4) | +++ (MIC ≦ 4) | +++ (MIC ≦ 4) | +++ (MIC ≦ 4) | + (12 ≦ MIC ≦ 32) | >32 µg/mL | +++ (MIC ≦ 4) | + (12 ≦ MIC ≦ 32) |
|  |  |  |  |  |  |  |  | NCCCCNc1ncccc1C(=O)Nc1ccc(-c2cc3ccccc3o2)cc1 [Compound A-18] | +++ (MIC ≦ 4) | ++ (4 < MIC < 12) | ++ (4 < MIC < 12) | +++ (MIC ≦ 4) | +++ (MIC ≦ 4) | +++ (MIC ≦ 4) | +++ (MIC ≦ 4) | +++ (MIC ≦ 4) | >32 µg/mL |  |  |
|  |  |  |  |  |  |  |  | NCCNc1ncccc1C(=O)Nc1ccc(-c2cc3ccccc3o2)cc1 [Compound A-19] | +++ (MIC ≦ 4) | ++ (4 < MIC < 12) | +++ (MIC ≦ 4) | +++ (MIC ≦ 4) | +++ (MIC ≦ 4) | +++ (MIC ≦ 4) | +++ (MIC ≦ 4) | + (12 ≦ MIC ≦ 32) | >32 µg/mL |  |  |
| > 32 | 4 to 12 (≈ 8.08 to 24.2 µM) | < 4 | < 4 | < 4 | < 4 | < 4 | 12 to 32 (≈ 24.2 to 64.6 µM) | Cc1cc(NC(=O)c2nsc(NCCN3CCCCC3)c2Cl)ccc1-c1cc2ccccc2o1 [Compound A-32] |  |  |  |  |  |  |  |  |  |  |  |
|  |  |  |  |  |  |  |  | Cc1cc(NC(=O)c2nsc(NCCCN)c2Cl)ccc1-c1cc2ccccc2o1 [Compound A-34] | +++ (MIC ≦ 4) | +++ (MIC ≦ 4) | +++ (MIC ≦ 4) | +++ (MIC ≦ 4) | +++ (MIC ≦ 4) | +++ (MIC ≦ 4) | +++ (MIC ≦ 4) | + (12 ≦ MIC ≦ 32) | >32 µg/mL | +++ (MIC ≦ 4) | + (12 ≦ MIC ≦ 32) |
|  |  |  |  |  |  |  |  | CN(C)CCCNc1snc(C(=O)Nc2ccc(-c3cc4ccccc4s3)cc2)c1Cl [Compound A-47] | >32 µg/mL | +++ (MIC ≦ 4) | +++ (MIC ≦ 4) | +++ (MIC ≦ 4) | +++ (MIC ≦ 4) | +++ (MIC ≦ 4) | +++ (MIC ≦ 4) | >32 µg/mL | >32 µg/mL |  |  |
|  |  |  |  |  |  |  |  | O=C(Nc1ccc(-c2cc3ccccc3s2)cc1)c1cccnc1NCCN1CCCC1 [Compound A-49] | +++ (MIC ≦ 4) | +++ (MIC ≦ 4) | +++ (MIC ≦ 4) | +++ (MIC ≦ 4) | +++ (MIC ≦ 4) | +++ (MIC ≦ 4) | +++ (MIC ≦ 4) | + (12 ≦ MIC ≦ 32) | >32 µg/mL |  |  |
|  |  |  |  |  |  |  |  | CN(C)CCCNc1ncccc1C(=O)Nc1ccc(-c2cc3ccccc3s2)cc1 [Compound A-50] | +++ (MIC ≦ 4) | +++ (MIC ≦ 4) | +++ (MIC ≦ 4) | +++ (MIC ≦ 4) | +++ (MIC ≦ 4) | +++ (MIC ≦ 4) | +++ (MIC ≦ 4) | + (12 ≦ MIC ≦ 32) | >32 µg/mL |  |  |
